The values below come from patent US10945972B2, “Particulate materials” (Nektar Therapeutics, priority 2002, dated 2021).

Series [1] is described as follows: Electrostatic charge in Faraday well (Example 3). In kind it is physicochemical. From the text:
Surface charge was examined by placing weighed portions of the samples in a Faraday well to measure their electrostatic charge.

Series [2] is described as follows: Simple adhesion test in rotated glass jar (Example 3). In kind it is physicochemical. Conditions: glass jar rotated for 5 minutes. The procedure:
In this test, a small quantity of powder was weighed into a screw topped glass jar and the jar rotated for 5 minutes. The non-adhering powder was then tipped from the jar and weighed and the percentage powder adhering to the walls of the jar calculated.

Series [3] in a line: BET nitrogen adsorption specific surface area (Example 2). In kind it is physicochemical. The procedure:
Data on specific surface areas required for IGC studies were determined by BET nitrogen adsorption using a Surface Area Analyzer Coulter SA 3100 (Coulter Corp., Miami, Fla., USA). Samples were placed in glass sample holders and out-gassed with helium (purity >99.999%) at 40° C. for 16 hours before analysis. Nitrogen (purity >99.999%) was used as adsorbate and BET surface area was recorded as specific surface area of the samples. All measurements were performed in triplicate using the same batch of each material.

A short description of series [4]: Inverse gas chromatography of SX powders (Example 2). As to conditions: for KA: acidity parameter; for γs^D (mJ/m^2): column at 40° C.; for −ΔGA^SP (kJ/mol) Acetone: probe acetone; for −ΔGA^SP (kJ/mol) Chloroform: probe chloroform; for −ΔGA^SP (kJ/mol) Diethyl ether: probe diethyl ether; for −ΔGA^SP (kJ/mol) Ethyl acetate: probe ethyl acetate; for −ΔGA^SP (kJ/mol) Tetrahydrofuran: probe tetrahydrofuran.

Series [5] is described as follows: AEROSIZER time-of-flight of TBS (Example 8). The format is physicochemical. On the procedure:
The TBS samples were also analysed using an AEROSIZER™ (Amherst Process Instruments, Amherst, Mass., USA), provided with pulse jet disperser, the AERODISPERSER™, to introduce the powders to the instrument. The measurement range of the AEROSIZER™ is nominally from 0.2 to 200 μm of aerodynamic diameter with the standard 750 μm diameter tapered nozzle. The micronized and SEDS™ TBS samples were analyzed for 300 seconds in triplicate using normal deagglomeration conditions, feed rate (5000 particles per second) and medium shear force (0.5 psi).

Series [6] in a line: Differential scanning calorimetry (Example 8). In kind it is physicochemical. As to conditions: DSC, 10° C. min^−1. On the procedure:
Prior to sample analysis, a baseline was obtained which was used as a background. […] Temperature and enthalpy were calibrated with the standard materials indium (melting point=156.6° C.) and zinc (melting point=419.5° C.). Samples (1-10) were accurately weighed into pierced, crimped aluminium pans and heated at 10° C. min^−1 over a heating range of 25-290° C. under a nitrogen purge. A chiller unit was used in conjunction with the calorimeter to attain the lower temperatures.

Series [7] in a line: Inverse gas chromatography of TBS (Example 8). In kind it is physicochemical. On the procedure: An empty GC column was uniformly packed with the powder of interest (TBS). Pre-silanized commercially available straight glass columns of 30 cm length with a 3 mm internal diameter were used in this investigation. The silanation procedure was necessary to minimize active sites on the inner glass surfaces, which strongly interact with polar probes. Each column was packed at the detector end with a small amount of silanised glass wool, was clipped to a stand and powder was added through a glass funnel with the aid of a mechanical column packer (tapping) to improve powder flow and remove any air gaps. […] A. Hewlett Packard 6890 Series Gas Chromatograph (GC) (Hewlett Packard, Penna, USA) oven equipped with an autosampler was used to control the solvent temperature. The 6890 GC data acquisition system was used to record data from a thermal conductivity detector (TCD) and flame ionisation detector (FID) with the instrument modified for IGC by Surface Measurement Systems (SMS), Manchester, UK. The combination of detectors allowed sensitive analysis of both organic vapour elution and water (although RH was not raised above 0% for these experiments).
The whole system was fully automated by control software (SMS iGC Controller v1.3) and the data analyzed using SMS iGC Analysis macros. Prior to analysis, each column was equilibrated at 30° C. and 0% relative humidity (RH) for 5 hours by passing dry helium gas through the column. Helium gas was also used as the carrier gas. Hydrogen and compressed air flow rates were set at 40 and 450 ml min respectively for the FID. The chromatograph injection port was maintained at 80° C., TCD detector at 150° C. and the FID detector at 150° C. Column temperature was set at 30° C. throughout analysis. Data were obtained by flowing helium gas at 10 ml min^−1 through the sinalized glass column packed with a known weight of powdered material and injecting small amounts (concentration P/Po=0.05) of a range of probe vapors with different polarities. The retention times of the probes were measured using SMS iGC Controller v1.3 software, at infinite dilution or near zero surface coverage (equivalent to 10^−4-10^−7 μl of liquid) where retention is independent of the quantity of probe injected. For each sample, two columns were prepared and analysed by employing a method based on standard settings, which allows the precise control and measurement of experimental variables. This is essential in producing meaningful results. The data were used to calculate the dispersive and non-dispersive forces acting at TBS particle surfaces using the method developed by Schultz and co-workers (J. Schultz, L. Lavielle and C. Martin. The role of the interface in carbon fibre-epoxy composites, J. Adhesion, 23, 45-60 (1987)).

Series [8] in a line: Laser diffraction HELOS/RODOS of TBS (Example 8). The format is physicochemical. Conditions: 2 bar. The procedure: A small amount of TBS powder was analysed using a laser diffraction RODOS/VIBRI dispersing system (HELOS/RODOS, Sympatec GmbH, Clausthal-Zellerfeld, Germany). The instrument consisted of a laser sensor HELOS and a RODOS dry-powder air-dispersion system (Sympatec GmbH, Clausthal-Zellerfeld, Germany). Different measurement ranges of the laser sensor were provided by interchangeable objectives R1 (0.1-35 μm) and R2 (0.25-87.5 μm). The rate of powder dispersion was controlled by adjusting the pressure of the compressed air flow. A pressure of 2 bar was sufficient to achieve deagglomeration of primary particles without attrition.

Series [9] in a line: Triboelectrification in turbula mixer, charge and adhesion. In kind it is physicochemical. As to conditions: listed as M-SX. The procedure:
(§1) Triboelectrification was undertaken against a stainless steel contact surface using either a turbula mixer or a cyclone separator. Triboelectrification in a turbula mixer (Glen Creston, UK) was carried out by agitating a powder sample for 5 minutes at 30 rpm in a 100 ml stainless steel vessel at ambient temperature and relative humidity. A sample was poured in a reproducible manner into a Faraday well connected to an electrometer (Keithley 610, Keithley Instruments, Reading, UK). Charge and mass of sample was then recorded to give specific charge before and after triboelectrification. % w/w adhesion to the inner surface of the mixing vessel was calculated from the original mass of sample and the mass of sample poured into the Faraday well. During triboelectrification in a cyclone separator, a powder was fed from a steel vibratory table into a venturi funnel. Compressed air (velocity 8 m/s. relative humidity below 10%, ambient temperature) was used to convey the powder from the venturi along a horizontal pipe into the cyclone separator. The Faraday well and force compensation load cell was fitted at the base of the cyclone and used to collect charged particles. Final specific charge was recorded for non-adhered powder residing in the Faraday well and, where possible, powder adhering to the cyclone wall was dislodged by a stream of air and its charge and mass recorded. In both cases, the results were obtained from triplicate measurements.

Series [10] in a line: Particle size by AeroSizer time-of-flight (Example 1). The format is physicochemical. Conditions: aerodynamic-equivalent volume mean diameter. The procedure: (§2) PSD measurements were performed using firstly, AEROSIZER® time-of-flight instrument equipped with AERO-[…]® (TSI Inc., Minneapolis. USA) and secondly, laser diffraction sensor Helos with dry-powder air-dispersion system Rodos (Sympatec GmbH. Germany). The volume mean particle diameter, VMD, was obtained for both instruments using software options. In the general case of non-spherical particles, these instruments cannot provide the exact value of VMD, however, the time-of-flight technique gives an aerodynamic-equivalent particle diameter, whereas the laser diffraction method provides the geometric projection-equivalent diameter. These diameters afford the complementary information on PSD and therefore can be used for comparative size analysis.

Series [11] can be described thus: Laser diffraction particle size analysis HELOS/RODOS (Example 2). In kind it is physicochemical. Conditions: listed as M-SX. The procedure:
The instrument consisted of laser diffraction sensor HELOS and dry-powder air-dispersion system RODOS (Sympatec GmbH. Germany) with WINDOX OS computer interface. The dispersion process was controlled by means of adjusting pressure of the compressed air flow between 0.5 and 5 bar. […] All measurements were performed in triplicate. The particle shape factor, f, was calculated as f=Sv/Sv*. where Sv is the experimental specific surface area and Sv* is the specific surface area determined using the LD instrument assuming the particle sphericity.

A short description of series [12]: Particle size by Helos/Rodos laser diffraction (Example 1). In kind it is physicochemical. As to conditions: geometric projection-equivalent volume mean diameter. The procedure:
as §2

Series [13] is described as follows: Inverse gas chromatography surface energy (Example 1). Conditions: 303K. The format is physicochemical. From the text:
For TBS and FHBr powders, IGC was done using a Hewlett Packard Series 6890 instrument which was specifically modified for IGC measurements by Surface Measurement Systems Ltd (Manchester, UK). The IGC method is described in detail by Tong et al. 2001. (Tong H. H. Y., B. Y. Shekunov, P. York, A. H. L. Chow, 2001. Pharm. Res. 18, 852.) Triplicate measurements in separate packed columns were made. […] The γS^D and ΔGA values were obtained at 303K.

Series [14] can be described thus: Triboelectrification in cyclone separator, charge and adhesion. In kind it is physicochemical. As to conditions: listed as M-SX. On the procedure:
as §1

A short description of series [15]: Bulk powder density (Example 2). The format is physicochemical. As to conditions: listed as M-SX.

Where two headings read alike, the source gives them in different places.

As to salbutamol sulphate [Unprocessed], in series [1], the “Electrostatic Charge (nC/g)” value was −23.1 nC/g. Besides, the “Relative Powder Adhesion (to container walls)” value (from here on “Relative Powder Adhesion”) in [2] was found to be 8.6.

Take `OCc1cc(C(O)CNCCCCCCOCCCCc2ccccc2)ccc1O` (stereo not drawn) [G-SX, Salmeterol xinafoate]: the “SV (specific surface area)” value in series [3] worked out at 10.699. Besides, in series [4], the KA turned out to be 0.233, the “γs^D (mJ/m^2)” value came to 36.972 mJ/m^2, the “−ΔGA^SP (kJ/mol) Acetone” value was 5.454 kJ/mol and the “−ΔGA^SP (kJ/mol) Chloroform” value is 1.885 kJ/mol. For the same compound, in series [4], the “−ΔGA^SP (kJ/mol) Diethyl ether” value was 2.958 kJ/mol, the “−ΔGA^SP (kJ/mol) Ethyl acetate” value worked out at 4.739 kJ/mol and the “−ΔGA^SP (kJ/mol) Tetrahydrofuran” value was 4.854 kJ/mol.

Take “salbutamol sulphate [Micronised, reference compound]”: in series [5], the “Aerosizer D4, 3 (μm)” value stood at 2.69 μm. Besides, in series [1], the “Electrostatic Charge (nC/g)” value was −42.6 nC/g. For the same compound, the “Enthalpy of Fusion” value in [6] was determined as 121.76 J/g. Further, the “Relative Powder Adhesion” value in series [2] is 18.6. The KA in series [7] is listed as 0.892. Further, the “γs^D mJm^−2” value in series [7] (30° C., 0% RH) stood at 58.61 mJm^−2. Also, in [7] (probe acetone), the “−ΔGA^SP (kJ/mol) Acetone” value came out at 12.57 kJ/mol. Besides, the “−ΔGA^SP (kJ/mol) Chloroform” value in [7] (probe chloroform) was determined as 1.79 kJ/mol. Besides, the “−ΔGA^SP (kJ/mol) Dioxane” value in [7] (probe dioxane) is recorded as 15.96 kJ/mol. Also, the “−ΔGA^SP (kJ/mol) Ethyl acetate” value in [7] (probe ethyl acetate) is listed as 16.01 kJ/mol. Further, the “−ΔGA^SP (kJ/mol) Toluene” value in series [7] (probe toluene) was 3.42 kJ/mol. In [8], the “Sympatec D4, 3 (μm)” value was found to be 3.04 μm.

On to salbutamol sulphate [SEDS], for which the “Electrostatic Charge (nC/g)” value in series [1] was −0.2 nC/g. Also, the “Relative Powder Adhesion” value in [2] was 1.0.

As to `OCc1cc(C(O)CNCCCCCCOCCCCc2ccccc2)ccc1O` (stereo not drawn) [SX Micronised, salmeterol xinafoate, reference compound], the “SV (specific surface area)” value in series [3] (listed as M-SX) was 9.243. For the same compound, in series [9] (5 minutes at 30 rpm), the “Q (nCg^−1) After mixing” value is recorded as −42.6 nCg^−1. In [9], the “AD (% w/w), fraction of adhered material” value turned out to be 27 % w/w and the “Q (nCg^−1) Before mixing” value is −12.1 nCg^−1. In [4] (listed as M-SX), the KA stood at 0.172, the “γs^D (mJ/m^2)” value was 38.285 mJ/m^2, the “−ΔGA^SP (kJ/mol) Acetone” value was determined as 4.560 kJ/mol and the “−ΔGA^SP (kJ/mol) Chloroform” value is 0.810 kJ/mol. Also, in series [4] (listed as M-SX), the “−ΔGA^SP (kJ/mol) Diethyl ether” value was 2.774 kJ/mol, the “−ΔGA^SP (kJ/mol) Ethyl acetate” value is on record as 3.995 kJ/mol and the “−ΔGA^SP (kJ/mol) Tetrahydrofuran” value was determined as 3.609 kJ/mol. Also, the “VMD (μm) (Time of flight)” value in series [10] is 1.2 μm. In addition, the “mean particle size d4,3” value in series [11] (LD technique) amounted to 1.8 μm. The “f (particle shape factor, f=Sv/Sv*)” value in [11] was determined as 2.80. Besides, the “VMD (μm) (laser diffraction)” value in [12] is 1.69 μm. Also, the “γs^D (mJ/m^2)” value in series [13] is given as 40.49 mJ/m^2. Moreover, the “ΔGA (kJ/mol) Acetone” value in series [13] (probe acetone) is listed as 15.24 kJ/mol. The “ΔGA (kJ/mol) Chloroform” value in [13] (probe chloroform) was 14.78 kJ/mol. Further, the “ΔGA (kJ/mol) Diethyl ether” value in series [13] (probe diethyl ether) came out at 14.20 kJ/mol. Besides, the “ΔGA (kJ/mol) Ethyl acetate” value in series [13] (probe ethyl acetate) came to 17.46 kJ/mol. In series [14], the “AD (% w/w), fraction of adhered material” value came out at 16.7 % w/w; the “Q (nCg^−1) After mixing” value is on record as −49.7 nCg^−1; the “Q (nCg^−1) Before mixing” value was −48.4 nCg^−1. In series [15], this compound showed a bulk powder density of 0.5 g/mL.
